From patent publication US20200165257A1, “INHIBITORS OF PHOSPHOINOSITIDE 3-KINASE AND HISTONE DEACETYLASE FOR TREATMENT OF CANCER” (THE UNITED STATES OF AMERICA, AS REPRESENTED BY THE …, priority 2017, published 2020)

Columns and labels:
Assay type in all cases: biochemical
PI3Kδ = PI3Kδ (Homo sapiens, UniProt O00329); assay: PI3Kδ kinase assay (HTRF); conditions: for IC50: symbols ++ / +, read-out: PI3Kδ Inhibition Activity (IC50 class); for inhibition at 1 µM: symbols ** / *, read-out: PI3Kδ Inhibition Activity (% Inhibition class)
Protocol: (§1) The PIP3 product is detected by displacement of biotin-PIP3 from an energy transfer complex consisting of Europium labeled anti-GST monoclonal antibody, a GST-tagged pleckstrin homology (PH) domain, biotinylated PIP3 and Streptavidin-Allophycocyanin (APC). […] The PIP3 product formed by PI 3-Kinase(h) activity displaces biotin-PIP3 from the complex resulting in a loss of energy transfer, and thus, a decrease in signal.
(§2) First, the kinase reaction with PIP2 substrate is carried out in the presence of ATP, and the reaction is quenched with stop Solution, and then, finally detect by adding Detection Mixture followed by incubation.
(§3) HEPES 50 mM (pH7.0), NaN3 0.02%, BSA 0.01%, Orthovanadate 0.1 mM, 1% DMSO.
(§4) Detection buffer: HEPES 10 mM (pH7.0), BSA 0.02%, KF 0.16 M, EDTA 4 mM.
(§5) 10 μM PIP2 substrate (PI(4,5)P2)
(§6) 10 μM ATP under standard conditions
(§7) 1. Prepare substrate in freshly prepared Reaction Buffer.
(§8) 2. Deliver kinase into the substrate solution and gently mix.
(§9) 3. Deliver compounds in 100% DMSO into the kinase reaction mixture by Acoustic technology (Echo550; nanoliter range), incubate for 10 min at room temperature.
(§10) 4. Deliver ATP into the reaction mixture to initiate the reaction.
(§11) 5. Incubate for 30 min at 30° C.
(§12) 6. Quench the reaction with Stop Solution.
(§13) 7. Add Detection Mixture, and incubate for overnight.
(§14) The emission ratio is converted into μM PIP3 production based on PIP3 standard curves.
(§15) The nonlinear regression to obtain the standard curve and IC50 values are performed using Graphpad Prism software.

HDAC6 = target: T1, HDAC6 (Homo sapiens, UniProt Q9UBN7); assay: HDAC Fluorescent Activity Assay; conditions: for IC50: symbols ++ / +, read-out: HDAC6 Inhibition Activity (IC50 class); for inhibition at 1 µM: symbols ** / *, read-out: HDAC6 Inhibition Activity (% Inhibition class)
T1 sequence (Q9UBN7 1-1215): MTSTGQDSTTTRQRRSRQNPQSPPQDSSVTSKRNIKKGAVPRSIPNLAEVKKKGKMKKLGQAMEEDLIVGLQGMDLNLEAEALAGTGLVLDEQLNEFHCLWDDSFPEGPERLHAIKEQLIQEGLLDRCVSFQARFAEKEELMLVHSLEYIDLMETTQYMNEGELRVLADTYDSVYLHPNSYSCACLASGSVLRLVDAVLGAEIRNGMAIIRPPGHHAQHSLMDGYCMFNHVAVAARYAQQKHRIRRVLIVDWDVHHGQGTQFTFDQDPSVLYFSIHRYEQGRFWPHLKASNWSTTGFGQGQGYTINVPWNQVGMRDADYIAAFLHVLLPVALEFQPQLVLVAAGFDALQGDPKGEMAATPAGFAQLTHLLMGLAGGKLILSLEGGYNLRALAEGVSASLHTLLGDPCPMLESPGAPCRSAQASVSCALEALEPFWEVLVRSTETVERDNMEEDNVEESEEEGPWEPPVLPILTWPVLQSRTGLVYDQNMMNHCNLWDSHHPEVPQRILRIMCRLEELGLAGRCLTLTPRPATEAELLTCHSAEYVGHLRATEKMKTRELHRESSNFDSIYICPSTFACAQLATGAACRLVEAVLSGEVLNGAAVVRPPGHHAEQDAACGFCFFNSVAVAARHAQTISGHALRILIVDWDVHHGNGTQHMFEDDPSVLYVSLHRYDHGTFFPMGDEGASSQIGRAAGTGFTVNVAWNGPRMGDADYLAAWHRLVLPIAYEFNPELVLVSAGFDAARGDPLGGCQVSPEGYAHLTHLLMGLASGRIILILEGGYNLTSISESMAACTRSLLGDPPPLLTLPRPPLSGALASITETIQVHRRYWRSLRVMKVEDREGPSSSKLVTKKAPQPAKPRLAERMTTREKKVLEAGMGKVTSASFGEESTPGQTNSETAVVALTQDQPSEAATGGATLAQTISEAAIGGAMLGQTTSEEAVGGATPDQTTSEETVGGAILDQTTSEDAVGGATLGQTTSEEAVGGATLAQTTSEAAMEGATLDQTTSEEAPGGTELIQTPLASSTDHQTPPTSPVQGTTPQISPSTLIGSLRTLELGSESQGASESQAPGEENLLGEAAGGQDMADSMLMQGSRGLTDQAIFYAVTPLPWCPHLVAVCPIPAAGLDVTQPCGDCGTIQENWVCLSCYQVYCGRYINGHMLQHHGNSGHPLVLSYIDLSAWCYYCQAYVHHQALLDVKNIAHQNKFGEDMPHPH
Protocol: This protocol is to determine the IC50s or percentage of inhibition values of the test compound against HDACs.
The HDAC Fluorescent Activity Assay is based on the unique Fluorogenic Substrate and Developer combination. […] First, the Fluorogenic Substrate, which comprises an acetylated lysine side chain, is incubated with a purified HDAC enzyme. Deacetylation of the substrate sensitizes the substrate so that, in the second step, treatment with the Developer produces a fluorophore.
Testing compounds were dissolved in 100% DMSO to specific concentration. […]
1. Deliver 2× enzyme in wells of reaction plate except No Enzyme control wells. Add buffer in No En wells.
2. Deliver compounds in 100% DMSO into the enzyme mixture by Acoustic technology (Echo550; nanoliter range). Spin down and pre-incubation.
3. Deliver 2× Substrate Mixture (Fluorogenic HDAC Substrate and co-factor if applicable) in all reaction wells to initiate the reaction. Spin and shake.
4. Incubate for 1-2 hr at 30° C. with seal.
5. Add Developer with Trichostatin A (or TMP269) to stop the reaction and to generate fluorescent color.
6. Fluorescence was read (excitatory, 360; emission, 460) using the EnVision Multilabel
7. Take endpoint reading for analysis after the development reaches plateau.
The percentages of enzyme activity (relative to DMSO controls) and IC50 values were calculated using the GraphPad Prism 4 program based on a sigmoidal dose-response equation.

PI3Kα = PI3Kα (Homo sapiens, UniProt P42336); assay: PI3Kα kinase assay (HTRF)
Protocol: as §1, §2, §3, §4, §5, §6, §7, §8, §9, §10, §11, §12, §13, §14, §15

PI3Kβ = PI3Kβ (Homo sapiens, UniProt P42338); assay: PI3Kβ kinase assay (HTRF)
Protocol: as §1, §2, §3, §4, §5, §6, §7, §8, §9, §10, §11, §12, §13, §14, §15

PI3Kγ = PI3Kγ (Homo sapiens, UniProt P48736); assay: PI3Kγ kinase assay (HTRF)
Protocol: as §1, §2, §3, §4, §5, §6, §7, §8, §9, §10, §11, §12, §13, §14, §15

Chain of PI3Kα (P42336 whole entry): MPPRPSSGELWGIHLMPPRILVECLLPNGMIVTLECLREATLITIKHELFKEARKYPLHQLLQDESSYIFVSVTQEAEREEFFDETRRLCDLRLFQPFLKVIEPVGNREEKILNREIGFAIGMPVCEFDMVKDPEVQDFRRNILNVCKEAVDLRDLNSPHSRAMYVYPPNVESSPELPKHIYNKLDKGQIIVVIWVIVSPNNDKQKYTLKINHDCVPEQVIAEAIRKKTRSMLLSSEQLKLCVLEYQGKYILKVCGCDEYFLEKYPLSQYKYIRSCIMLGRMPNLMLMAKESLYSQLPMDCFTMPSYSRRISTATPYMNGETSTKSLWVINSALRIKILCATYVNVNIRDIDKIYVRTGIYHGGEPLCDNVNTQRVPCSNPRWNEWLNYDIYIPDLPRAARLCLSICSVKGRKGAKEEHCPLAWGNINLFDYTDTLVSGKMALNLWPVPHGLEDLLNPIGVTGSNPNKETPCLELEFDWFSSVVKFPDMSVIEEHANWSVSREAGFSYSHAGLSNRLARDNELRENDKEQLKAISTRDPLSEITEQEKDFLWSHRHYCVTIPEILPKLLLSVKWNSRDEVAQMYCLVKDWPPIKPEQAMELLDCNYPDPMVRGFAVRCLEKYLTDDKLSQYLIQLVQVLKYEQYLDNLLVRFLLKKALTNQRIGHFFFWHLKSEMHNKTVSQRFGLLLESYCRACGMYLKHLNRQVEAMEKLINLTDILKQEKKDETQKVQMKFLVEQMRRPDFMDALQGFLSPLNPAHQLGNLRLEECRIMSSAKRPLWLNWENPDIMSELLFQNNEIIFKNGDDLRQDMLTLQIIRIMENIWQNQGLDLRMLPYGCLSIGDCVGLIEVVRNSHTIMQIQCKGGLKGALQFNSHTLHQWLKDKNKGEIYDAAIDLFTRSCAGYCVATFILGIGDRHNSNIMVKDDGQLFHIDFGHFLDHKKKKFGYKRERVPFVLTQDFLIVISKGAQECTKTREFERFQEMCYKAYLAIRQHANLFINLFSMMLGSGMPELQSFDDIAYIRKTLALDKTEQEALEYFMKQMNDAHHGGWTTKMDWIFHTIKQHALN
Chain of PI3Kα (P27986 whole entry partner): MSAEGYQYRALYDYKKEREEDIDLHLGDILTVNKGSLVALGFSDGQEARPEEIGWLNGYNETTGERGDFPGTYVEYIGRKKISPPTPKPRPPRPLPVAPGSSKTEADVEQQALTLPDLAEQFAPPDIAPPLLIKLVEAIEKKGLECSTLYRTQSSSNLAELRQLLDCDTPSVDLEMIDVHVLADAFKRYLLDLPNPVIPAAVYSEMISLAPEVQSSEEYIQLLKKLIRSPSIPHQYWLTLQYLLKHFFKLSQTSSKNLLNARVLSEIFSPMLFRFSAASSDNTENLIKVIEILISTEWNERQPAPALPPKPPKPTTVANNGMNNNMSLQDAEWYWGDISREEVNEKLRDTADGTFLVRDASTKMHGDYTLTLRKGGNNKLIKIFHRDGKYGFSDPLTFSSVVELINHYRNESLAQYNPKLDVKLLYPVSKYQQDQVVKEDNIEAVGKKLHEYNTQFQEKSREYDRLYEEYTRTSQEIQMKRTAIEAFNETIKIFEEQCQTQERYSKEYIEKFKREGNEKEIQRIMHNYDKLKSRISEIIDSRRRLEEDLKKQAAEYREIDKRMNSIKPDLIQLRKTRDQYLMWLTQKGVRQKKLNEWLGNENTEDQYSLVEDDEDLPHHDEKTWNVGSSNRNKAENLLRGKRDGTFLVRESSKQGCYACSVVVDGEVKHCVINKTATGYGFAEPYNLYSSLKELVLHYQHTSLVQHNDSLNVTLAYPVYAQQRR
Chain of PI3Kβ (P42338 whole entry): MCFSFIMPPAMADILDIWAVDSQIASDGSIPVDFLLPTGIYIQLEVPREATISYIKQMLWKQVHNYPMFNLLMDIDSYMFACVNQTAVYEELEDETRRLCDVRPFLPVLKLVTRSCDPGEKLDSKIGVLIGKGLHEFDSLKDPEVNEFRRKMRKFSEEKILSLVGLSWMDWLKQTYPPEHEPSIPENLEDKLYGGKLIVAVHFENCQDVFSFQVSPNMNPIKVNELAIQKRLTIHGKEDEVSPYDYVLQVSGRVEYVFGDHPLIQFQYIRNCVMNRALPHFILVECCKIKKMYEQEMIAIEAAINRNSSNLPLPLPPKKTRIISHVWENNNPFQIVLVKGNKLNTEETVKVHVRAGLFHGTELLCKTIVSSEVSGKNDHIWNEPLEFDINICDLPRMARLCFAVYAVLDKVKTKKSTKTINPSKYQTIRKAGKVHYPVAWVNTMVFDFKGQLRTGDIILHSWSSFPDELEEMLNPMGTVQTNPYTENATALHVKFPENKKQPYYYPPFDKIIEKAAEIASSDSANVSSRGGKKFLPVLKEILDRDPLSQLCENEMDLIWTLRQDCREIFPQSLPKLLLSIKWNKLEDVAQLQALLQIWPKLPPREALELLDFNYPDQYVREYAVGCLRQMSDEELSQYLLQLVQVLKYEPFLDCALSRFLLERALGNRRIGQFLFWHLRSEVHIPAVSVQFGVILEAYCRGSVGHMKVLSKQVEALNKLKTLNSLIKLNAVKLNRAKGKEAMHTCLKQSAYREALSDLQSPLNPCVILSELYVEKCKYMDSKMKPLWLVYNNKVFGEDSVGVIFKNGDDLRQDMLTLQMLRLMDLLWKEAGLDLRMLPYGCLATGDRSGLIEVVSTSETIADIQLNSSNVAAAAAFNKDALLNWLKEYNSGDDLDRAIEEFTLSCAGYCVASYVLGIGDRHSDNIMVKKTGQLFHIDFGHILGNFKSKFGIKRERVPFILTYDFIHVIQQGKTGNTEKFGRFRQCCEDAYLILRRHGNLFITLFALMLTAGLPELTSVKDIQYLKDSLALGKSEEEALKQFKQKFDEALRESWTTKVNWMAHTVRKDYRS
Chain of PI3Kβ (P27986 whole entry partner): as the sequence (P27986 whole entry partner) above
Chain of PI3Kδ (O00329 whole entry): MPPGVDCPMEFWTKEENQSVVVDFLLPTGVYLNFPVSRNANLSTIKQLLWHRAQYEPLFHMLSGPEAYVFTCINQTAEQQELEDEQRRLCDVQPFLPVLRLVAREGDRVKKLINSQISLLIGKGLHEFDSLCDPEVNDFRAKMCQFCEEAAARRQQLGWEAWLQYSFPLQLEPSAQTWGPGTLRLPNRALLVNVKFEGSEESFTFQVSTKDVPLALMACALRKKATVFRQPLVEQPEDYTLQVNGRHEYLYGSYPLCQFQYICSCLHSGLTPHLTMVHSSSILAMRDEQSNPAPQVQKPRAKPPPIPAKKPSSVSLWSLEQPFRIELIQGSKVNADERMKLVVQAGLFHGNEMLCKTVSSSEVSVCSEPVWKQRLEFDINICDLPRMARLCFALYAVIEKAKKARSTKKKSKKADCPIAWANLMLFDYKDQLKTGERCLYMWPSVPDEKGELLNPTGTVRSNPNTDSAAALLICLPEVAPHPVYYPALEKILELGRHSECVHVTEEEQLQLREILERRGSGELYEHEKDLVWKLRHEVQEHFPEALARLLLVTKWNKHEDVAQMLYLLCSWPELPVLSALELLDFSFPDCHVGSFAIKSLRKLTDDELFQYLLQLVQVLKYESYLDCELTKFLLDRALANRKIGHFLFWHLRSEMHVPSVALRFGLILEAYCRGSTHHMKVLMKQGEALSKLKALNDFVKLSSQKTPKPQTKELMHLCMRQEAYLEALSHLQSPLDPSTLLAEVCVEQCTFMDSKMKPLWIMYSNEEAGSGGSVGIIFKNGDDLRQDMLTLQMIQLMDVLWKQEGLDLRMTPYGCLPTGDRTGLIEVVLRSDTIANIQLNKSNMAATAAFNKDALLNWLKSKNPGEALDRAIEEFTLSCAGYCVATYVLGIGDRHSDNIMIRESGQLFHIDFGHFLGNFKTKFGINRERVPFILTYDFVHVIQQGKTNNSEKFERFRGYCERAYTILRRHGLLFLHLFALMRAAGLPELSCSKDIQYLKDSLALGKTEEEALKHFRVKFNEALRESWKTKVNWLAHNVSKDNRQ
Chain of PI3Kδ (P27986 whole entry partner): as the sequence (P27986 whole entry partner) above
Chain of PI3Kγ (P48736 whole entry): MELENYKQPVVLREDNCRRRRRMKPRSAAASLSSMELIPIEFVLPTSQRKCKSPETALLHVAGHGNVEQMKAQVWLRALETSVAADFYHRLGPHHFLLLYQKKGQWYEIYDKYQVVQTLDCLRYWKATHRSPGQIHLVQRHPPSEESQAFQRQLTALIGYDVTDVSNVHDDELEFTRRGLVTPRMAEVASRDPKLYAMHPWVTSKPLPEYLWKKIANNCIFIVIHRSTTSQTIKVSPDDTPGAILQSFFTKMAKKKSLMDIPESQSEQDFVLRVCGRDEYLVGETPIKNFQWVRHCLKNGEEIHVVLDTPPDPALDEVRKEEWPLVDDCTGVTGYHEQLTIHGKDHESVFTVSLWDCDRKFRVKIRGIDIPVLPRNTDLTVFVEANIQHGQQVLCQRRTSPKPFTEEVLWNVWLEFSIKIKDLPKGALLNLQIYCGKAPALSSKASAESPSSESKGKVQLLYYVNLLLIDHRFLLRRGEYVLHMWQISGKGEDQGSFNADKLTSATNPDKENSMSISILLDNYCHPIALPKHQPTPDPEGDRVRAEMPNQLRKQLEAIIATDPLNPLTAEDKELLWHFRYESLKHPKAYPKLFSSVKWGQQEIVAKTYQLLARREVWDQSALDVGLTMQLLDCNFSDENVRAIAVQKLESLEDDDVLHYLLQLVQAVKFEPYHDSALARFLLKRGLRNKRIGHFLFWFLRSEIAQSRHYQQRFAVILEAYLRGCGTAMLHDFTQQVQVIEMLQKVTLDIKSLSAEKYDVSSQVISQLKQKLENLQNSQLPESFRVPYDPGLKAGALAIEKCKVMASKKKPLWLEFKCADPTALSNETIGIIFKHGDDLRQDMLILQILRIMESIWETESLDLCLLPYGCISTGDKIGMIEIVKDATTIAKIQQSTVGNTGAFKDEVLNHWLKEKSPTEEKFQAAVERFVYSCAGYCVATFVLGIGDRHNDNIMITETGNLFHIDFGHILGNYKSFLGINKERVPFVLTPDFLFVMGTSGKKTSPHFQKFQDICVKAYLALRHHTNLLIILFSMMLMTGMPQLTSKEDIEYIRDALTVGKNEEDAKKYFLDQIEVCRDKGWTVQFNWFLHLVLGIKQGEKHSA

IC50 (PI3Kδ)	IC50 (HDAC6)	inhibition at 1 µM (HDAC6)	inhibition at 1 µM (PI3Kδ)	inhibition at 1 µM (PI3Kα)	inhibition at 1 µM (PI3Kβ)	inhibition at 1 µM (PI3Kγ)	SMILES
< 100 nM	< 100 nM	–	–	–	–	–	CC[C@H](Nc1nc(N)nc(C)c1C#N)c1nc2cccc(N3CCC(CCC(=O)NO)CC3)c2c(=O)n1-c1ccccc1 [Compound L, (S)-3-(1-(2-(1-((2-amino-5-cyano-6-methylpyrimidin-4-yl)amino)propyl)-4-oxo-3-phenyl-3,4-dihydroquinazolin-5-yl)piperidin-4-yl)-N-hydroxypropanamide]
< 100 nM	< 100 nM	–	–	–	–	–	CC[C@H](Nc1nc(N)nc(C)c1C#N)c1nc2cccc(N(C)Cc3ccc(C(=O)NO)cc3)c2c(=O)n1-c1ccccc1 [LI, (S)-4-(((2-(1-((2-amino-5-cyano-6-methylpyrimidin-4-yl)amino)propyl)-4-oxo-3-phenyl-3,4-dihydroquinazolin-5-yl)(methyl)amino)methyl)-N-hydroxybenzamide]
< 100 nM	–	> 90%	–	–	–	–	CC[C@H](Nc1nc(N)nc(C)c1C#N)c1nc2cccc(C#CCCCC(=O)NO)c2c(=O)n1-c1ccccc1 [LVI, (S)-6-(2-(1-((2-amino-5-cyano-6-methylpyrimidin-4-yl)amino)propyl)-4-oxo-3-phenyl-3,4-dihydroquinazolin-5-yl)-N-hydroxyhex-5-ynamide]
> 100 nM	< 100 nM	–	–	–	–	–	CC[C@H](Nc1ncnc(N)c1C(N)=O)c1nc2cccc(NCc3ccc(C(=O)NO)cn3)c2c(=O)n1-c1ccccc1 [LVII, (S)-4-amino-6-((1-(5-(((5-(hydroxycarbamoyl)pyridin-2-yl)methyl)amino)-4-oxo-3-phenyl-3,4-dihydroquinazolin-2-yl)propyl)amino)pyrimidine-5-carboxamide]
–	< 100 nM	–	–	–	–	–	O=C(NO)c1ccc(CNc2cccc3nc(C4CC4)n(-c4ccccc4)c(=O)c23)cc1 [LXI, 4-(((2-cyclopropyl-4-oxo-3-phenyl-3,4-dihydroquinazolin-5-yl)amino)methyl)-N-hydroxybenzamide]
–	> 100 nM	–	–	–	–	–	Cc1nc2cccc(NCCCCC(=O)NO)c2c(=O)n1-c1ccccc1 [LXII, N-hydroxy-5-((2-methyl-4-oxo-3-phenyl-3,4-dihydroquinazolin-5-yl)amino)pentanamide]
–	> 100 nM	–	–	–	–	–	O=C(CCCCNc1cccc2nc(C3CC3)n(-c3ccccc3)c(=O)c12)NO [LXIII, 5-((2-cyclopropyl-4-oxo-3-phenyl-3,4-dihydroquinazolin-5-yl)amino)-N-hydroxypentanamide]
–	–	< 90%	> 90%	< 85%	< 85%	< 85%	CC[C@H](Nc1ncnc2[nH]cnc12)c1nc2cccc(-c3cnc(C(=O)NO)nc3)c2c(=O)n1-c1ccccc1 [XXII, (S)-5-(2-(1-((9H-purin-6-yl)amino)propyl)-4-oxo-3-phenyl-3,4-dihydroquinazolin-5-yl)-N-hydroxypyrimidine-2-carboxamide]
–	–	< 90%	> 90%	< 85%	< 85%	< 85%	CC[C@H](Nc1ncnc2[nH]cnc12)c1nc2cccc(CC(=O)c3ccc(C(=O)Nc4ccccc4N)cc3)c2c(=O)n1-c1ccccc1 [XXIII, (S)-4-(2-(2-(1-((9H-purin-6-yl)amino)propyl)-4-oxo-3-phenyl-3,4-dihydroquinazolin-5-yl)acetyl)-N-(2-aminophenyl)benzamide]
–	–	< 90%	> 90%	< 85%	< 85%	< 85%	CC[C@H](Nc1ncnc2[nH]cnc12)c1nc2cccc(CNC(=O)c3cccc(B(O)O)c3)c2c(=O)n1-c1ccccc1 [XXV, (S)-(3-(((2-(1-((9H-purin-6-yl)amino)propyl)-4-oxo-3-phenyl-3,4-dihydroquinazolin-5-yl)methyl)carbamoyl)phenyl)boronic acid]
–	> 100 nM	–	–	–	–	–	CC[C@H](Nc1ncnc2[nH]cnc12)c1nc2cccc(NCc3ccc(C(=O)N(C)O)cc3)c2c(=O)n1-c1ccccc1 [XXVII, (S)-4-(((2-(1-((9H-purin-6-yl)amino)propyl)-4-oxo-3-phenyl-3,4-dihydroquinazolin-5-yl)amino)methyl)-N-hydroxy-N-methylbenzamide]
> 100 nM	< 100 nM	–	–	–	–	–	CC[C@H](Nc1ncnc2[nH]cnc12)c1nc(NCCCCCC(=O)NO)c2ccccc2n1 [XXXI, (S)-6-((2-(1-((9H-purin-6-yl)amino)propyl)quinazolin-4-yl)amino)-N-hydroxyhexanamide]
–	–	< 90%	< 90%	< 85%	< 85%	< 85%	CC[C@H](Nc1ncnc2[nH]cnc12)c1nc(N2CCN(c3nc(C(=O)NO)cs3)CC2)c2ccccc2n1 [XXXII, (S)-2-(4-(2-(1-((9H-purin-6-yl)amino)propyl)quinazolin-4-yl)piperazin-1-yl)-N-hydroxythiazole-4-carboxamide]
–	–	> 90%	< 90%	< 85%	< 85%	< 85%	CC[C@H](Nc1ncnc2[nH]cnc12)c1nc(N2CCN(c3nc(C(=O)NO)co3)CC2)c2ccccc2n1 [XXXIII, (S)-2-(4-(2-(1-((9H-purin-6-yl)amino)propyl)quinazolin-4-yl)piperazin-1-yl)-N-hydroxyoxazole-4-carboxamide]
–	–	> 90%	< 90%	< 85%	< 85%	< 85%	CC[C@H](Nc1ncnc2[nH]cnc12)c1nc(-c2ccc(C(=O)NO)cc2)c2ccccc2n1 [XXXIV, (S)-4-(2-(1-((9H-purin-6-yl)amino)propyl)quinazolin-4-yl)-N-hydroxybenzamide]
